PubChem BioAssay (NCI)
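Growth conditions: 96-well plates. Treatment: test compound, 48 hours, 5 concentrations. Analysis: linear interpolation between bracketing concentrations; unreached endpoints set to highest concentration. The concentration for 50% growth inhibition is given as GI50. TGI: total growth inhibition.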

Key:
Assay in all cases: NCI anticancer screen, dose series, 48 h
HL-60(TB) leukemia = test system: HL-60(TB) leukemia
EKVX NSCLC = test system: EKVX NSCLC
RPMI-8226 leukemia = test system: RPMI-8226 leukemia
MALME-3M melanoma = test system: MALME-3M melanoma
HCT-15 colon = test system: HCT-15 colon
HCT-116 colon = test system: HCT-116 colon
SK-MEL-5 melanoma = test system: SK-MEL-5 melanoma
NCI-H226 lung = test system: NCI-H226 lung
RXF 393 renal = test system: RXF 393 renal
SF-539 CNS = test system: SF-539 CNS
SK-MEL-28 melanoma = test system: SK-MEL-28 melanoma
MOLT-4 leukemia = test system: MOLT-4 leukemia
IGROV1 ovarian = test system: IGROV1 ovarian
UACC-257 melanoma = test system: UACC-257 melanoma
ACHN renal = test system: ACHN renal
HOP-62 NSCLC = test system: HOP-62 NSCLC
UACC-62 melanoma = test system: UACC-62 melanoma
HT29 colon = test system: HT29 colon
MDA-MB-435 = test system: MDA-MB-435
CCRF-CEM leukemia = test system: CCRF-CEM leukemia
BT-549 breast = test system: BT-549 breast
K-562 leukemia = test system: K-562 leukemia
SW-620 colon = test system: SW-620 colon
MCF7 breast = test system: MCF7 breast
OVCAR-4 ovarian = test system: OVCAR-4 ovarian
SK-OV-3 ovarian = test system: SK-OV-3 ovarian
SNB-75 CNS = test system: SNB-75 CNS
NCI-H460 lung = test system: NCI-H460 lung
OVCAR-8 ovarian = test system: OVCAR-8 ovarian
HCC-2998 colon = test system: HCC-2998 colon
DU-145 prostate = test system: DU-145 prostate
MDA-MB-231 breast = test system: MDA-MB-231 breast
HOP-92 NSCLC = test system: HOP-92 NSCLC
SF-268 CNS = test system: SF-268 CNS
A498 renal = test system: A498 renal
CAKI-1 renal = test system: CAKI-1 renal
NCI-H522 lung = test system: NCI-H522 lung
M14 melanoma = test system: M14 melanoma
UO-31 renal = test system: UO-31 renal
LOX IMVI melanoma = test system: LOX IMVI melanoma
OVCAR-5 ovarian = test system: OVCAR-5 ovarian
OVCAR-3 ovarian = test system: OVCAR-3 ovarian
COLO 205 colon = test system: COLO 205 colon
786-0 renal = test system: 786-0 renal
NCI-H23 lung = test system: NCI-H23 lung
KM12 colon = test system: KM12 colon
SNB-19 CNS = test system: SNB-19 CNS
TK-10 renal = test system: TK-10 renal
MDA-MB-468 breast = test system: MDA-MB-468 breast
T-47D breast = test system: T-47D breast
SN12C renal = test system: SN12C renal
SR leukemia = test system: SR leukemia
HS 578T breast = test system: HS 578T breast
PC-3 prostate = test system: PC-3 prostate
A549 NSCLC = test system: A549 NSCLC
U251 CNS = test system: U251 CNS
SF-295 CNS = test system: SF-295 CNS

`O=C(c1ccc(Cl)cc1)c1ccc(OCCCN2CCN(c3ccncc3)CC2)cc1` gave a GI50 (HL-60(TB) leukemia) of 1.46 µM, a TGI (HL-60(TB) leukemia) of 3.59 µM and a GI50 (EKVX NSCLC) of 3.62 µM. It also gave a TGI (EKVX NSCLC) of 15.5 µM, a GI50 (RPMI-8226 leukemia) of 2.38 µM and a TGI (RPMI-8226 leukemia) of 10 µM. The GI50 (MALME-3M melanoma) was 1.79 µM, the TGI (MALME-3M melanoma) was 3.41 µM and the GI50 (HCT-15 colon) was 1.48 µM. For the same molecule, the TGI (HCT-15 colon) was 4.46 µM, the GI50 (HCT-116 colon) was 2.17 µM and the TGI (HCT-116 colon) was 11.1 µM. It also gave a GI50 (SK-MEL-5 melanoma) of 1.73 µM, a TGI (SK-MEL-5 melanoma) of 4.18 µM and a GI50 (NCI-H226 lung) of 4.22 µM. For the same molecule, the TGI (NCI-H226 lung) was 19.8 µM, the GI50 (RXF 393 renal) was 0.831 µM and the TGI (RXF 393 renal) was 6.4 µM. The GI50 (SF-539 CNS) was 1.77 µM, the TGI (SF-539 CNS) was 4.58 µM and the GI50 (SK-MEL-28 melanoma) was 1.99 µM. For the same molecule, the TGI (SK-MEL-28 melanoma) was 3.82 µM, the GI50 (MOLT-4 leukemia) was 2.88 µM and the TGI (MOLT-4 leukemia) was 9.07 µM. It also gave a GI50 (IGROV1 ovarian) of 6.59 µM, a TGI (IGROV1 ovarian) of 21 µM and a GI50 (UACC-257 melanoma) of 4.04 µM. It also gave a TGI (UACC-257 melanoma) of 15.7 µM, a GI50 (ACHN renal) of 8.94 µM and a TGI (ACHN renal) of 21.1 µM. For the same molecule, the GI50 (HOP-62 NSCLC) was 5.07 µM, the TGI (HOP-62 NSCLC) was 18.3 µM and the GI50 (UACC-62 melanoma) was 1.8 µM. The TGI (UACC-62 melanoma) was 3.63 µM, the GI50 (HT29 colon) was 1.81 µM and the TGI (HT29 colon) was 6.41 µM. The GI50 (MDA-MB-435) was 3.09 µM, the TGI (MDA-MB-435) was 11.5 µM and the GI50 (CCRF-CEM leukemia) was 2.7 µM. For the same molecule, the TGI (CCRF-CEM leukemia) was 12.2 µM, the GI50 (BT-549 breast) was 2.86 µM and the TGI (BT-549 breast) was 9.3 µM. For the same molecule, the GI50 (K-562 leukemia) was 1.08 µM, the TGI (K-562 leukemia) was 4.8 µM and the GI50 (SW-620 colon) was 2.57 µM. It also gave a GI50 (MCF7 breast) of 1.89 µM, a TGI (MCF7 breast) of 5.16 µM and a GI50 (OVCAR-4 ovarian) of 5.07 µM. For the same molecule, the TGI (OVCAR-4 ovarian) was 23.9 µM, the GI50 (SK-OV-3 ovarian) was 5.1 µM and the TGI (SK-OV-3 ovarian) was 18.4 µM. It also gave a GI50 (SNB-75 CNS) of 3.17 µM, a TGI (SNB-75 CNS) of 18.6 µM and a GI50 (NCI-H460 lung) of 4.81 µM. The TGI (NCI-H460 lung) was 18 µM, the GI50 (OVCAR-8 ovarian) was 9.52 µM and the TGI (OVCAR-8 ovarian) was 46.1 µM. It also gave a GI50 (HCC-2998 colon) of 3.01 µM, a TGI (HCC-2998 colon) of 8.47 µM and a GI50 (DU-145 prostate) of 10.1 µM. The TGI (DU-145 prostate) was 23.6 µM, the GI50 (MDA-MB-231 breast) was 4.32 µM and the TGI (MDA-MB-231 breast) was 17.3 µM. It also gave a GI50 (HOP-92 NSCLC) of 1.54 µM, a TGI (HOP-92 NSCLC) of 11.2 µM and a GI50 (SF-268 CNS) of 11.6 µM. The TGI (SF-268 CNS) was 27.9 µM, the GI50 (A498 renal) was 16 µM and the TGI (A498 renal) was 30.2 µM. The GI50 (CAKI-1 renal) was 4.95 µM, the TGI (CAKI-1 renal) was 19.4 µM and the GI50 (NCI-H522 lung) was 10.3 µM. It also gave a TGI (NCI-H522 lung) of 23.4 µM, a GI50 (M14 melanoma) of 1.77 µM and a TGI (M14 melanoma) of 3.51 µM. It also gave a GI50 (UO-31 renal) of 2.36 µM, a TGI (UO-31 renal) of 10.4 µM and a GI50 (LOX IMVI melanoma) of 1.69 µM. The TGI (LOX IMVI melanoma) was 3.25 µM, the GI50 (OVCAR-5 ovarian) was 10.5 µM and the TGI (OVCAR-5 ovarian) was 22.9 µM. For the same molecule, the GI50 (OVCAR-3 ovarian) was 3.9 µM, the TGI (OVCAR-3 ovarian) was 17.3 µM and the GI50 (COLO 205 colon) was 1.7 µM. The TGI (COLO 205 colon) was 3.51 µM, the GI50 (786-0 renal) was 1.69 µM and the TGI (786-0 renal) was 3.27 µM. It also gave a GI50 (NCI-H23 lung) of 2.89 µM, a TGI (NCI-H23 lung) of 11.7 µM and a GI50 (KM12 colon) of 4.57 µM. It also gave a TGI (KM12 colon) of 17 µM, a GI50 (SNB-19 CNS) of 9.11 µM and a TGI (SNB-19 CNS) of 21.8 µM. For the same molecule, the GI50 (TK-10 renal) was 12.3 µM, the TGI (TK-10 renal) was 25.6 µM and the GI50 (MDA-MB-468 breast) was 1.39 µM. It also gave a TGI (MDA-MB-468 breast) of 4.38 µM, a GI50 (T-47D breast) of 3.22 µM and a TGI (T-47D breast) of 18.3 µM. It also gave a GI50 (SN12C renal) of 10.9 µM, a TGI (SN12C renal) of 23.2 µM and a GI50 (SR leukemia) of 1.7 µM. For the same molecule, the TGI (SR leukemia) was 5.65 µM, the GI50 (HS 578T breast) was 6.05 µM and the TGI (HS 578T breast) was 27.7 µM. The GI50 (PC-3 prostate) was 3.4 µM, the TGI (PC-3 prostate) was 21.4 µM and the GI50 (A549 NSCLC) was 9.41 µM. The TGI (A549 NSCLC) was 23.7 µM, the GI50 (U251 CNS) was 3.98 µM and the TGI (U251 CNS) was 15.2 µM. It also gave a GI50 (SF-295 CNS) of 2.04 µM and a TGI (SF-295 CNS) of 4.82 µM.
